In one assay the target is Histone deacetylase. Put plainly: Inhibition of HDAC in human HeLa cells extracts after 60 mins by fluorescence assay. In kind it is cell-based.
The test system of another assay is A549. In words: Antiproliferative activity against human A549 cells after 48 hrs. Format: functional, cell-based. The note with it: A549, 48 h.

In general, IC50 refers to the concentration needed to halve the response being measured. A low value points to greater potency. As for `O=C(CCCCOc1ccc(-c2cc(=S)ss2)cc1)Nc1ccccc1`, the figures for the IC50 at Histone deacetylase and with A549 were 50 µM and more than 1000 µM, respectively.

Regarding `O=C(CCCCCCC(=O)Oc1ccc(-c2cc(=S)ss2)cc1)Nc1ccccc1`, the IC50 against Histone deacetylase is 100 µM; in the assay with A549 it was more than 1000 µM.

Turning to `O=C(O)c1ccc(-c2cssc2=S)cc1`, the half-inhibitory concentration (IC50) at Histone deacetylase came out at 100 µM; in the assay with A549 it was 103 µM.

As for `O=C(CCCCCCC(=O)Nc1ccccc1)NOC(=O)c1ccc(-c2cssc2=S)cc1`, the figures for the IC50 against Histone deacetylase and in the assay with A549 were 1.19 µM and 1.68 µM, respectively.

Regarding `COc1cc(-c2cc(=S)ss2)ccc1OCC(=O)O`, the results for the IC50 at Histone deacetylase and with A549 were 82.85 µM and 880 µM, respectively.

On to `O=C(CCCCCCC(=O)Oc1ccc(-c2cc(=S)ss2)cc1)NO`, for which the concentration for half-maximal inhibition (IC50) turned out to be 10 µM on Histone deacetylase and 56 µM with A549.

`Nc1ccccc1NC(=O)CCCCCCOc1ccc(-c2cc(=S)ss2)cc1`: the figures for the IC50 against Histone deacetylase and in the assay on A549 were 32 µM and 31.7 µM, respectively.

As for `O=C(CCCCCCOc1ccc(-c2cc(=S)ss2)cc1)Nc1ccccc1`, the IC50 against Histone deacetylase was 918.7 µM; with A549, 60.2 µM.

Consider `O=C(CCCCCCOc1ccc(-c2cc(=S)ss2)cc1)NO`, for which the figures for the IC50 against Histone deacetylase and with A549 were 0.01 µM and 6.1 µM, respectively.

As to `O=C(CCCCCCC(=O)Nc1ccccc1)NOC(=O)c1csc(=S)s1`, the results for the IC50 at Histone deacetylase and in the assay on A549 were 0.25 µM and 3.4 µM, respectively.

As for `O=C(CCCCOc1ccc(-c2cc(=S)ss2)cc1)NO`, the figures for the IC50 at Histone deacetylase and with A549 were 0.08 µM and 5.4 µM, respectively.

Consider `O=C(O)c1csc(=S)s1` [ACS 5], for which the results for the IC50 at Histone deacetylase and in the assay with A549 were 46.4 µM and more than 1000 µM, respectively.
